# Measured values: ChEMBL document CHEMBL1811882, “Synthesis and in vitro evaluation of novel pro-drugs for the treatment of nephropathic cystinosis” (Bioorg Med Chem, 2011)
# The source made the active and inactive calls. The calls are words filed in the database; no cut-off is given here.
# How the values were obtained:
# [1] = Cytotoxicity against cystinotic human fibroblasts at 50 uM after 72 hrs by Alamar blue assay; type: cell-based; details: fibroblast
# Fibroblast = experiment: Reduction of intralysosomal cystine in cystinotic human fibroblasts at 50 uM after 24 hrs by Bradford method relative to control; type: functional, cell-based
Structure (SMILES),Activity [1],Activity (Fibroblast)
Cl.Cl.N[C@@H](Cc1ccccc1)C(=O)NCCSSCCNC(=O)CCCC(=O)NCCSSCCNC(=O)CCCC(=O)NCCSSCCNC(=O)[C@@H](N)Cc1ccccc1,Non-toxic,Active
NCCS [CYSTEAMINE],Non-toxic,Active
Cl.Cl.NCCSSCCNC(=O)CCCC(=O)NCCSSCCNC(=O)CCCC(=O)NCCSSCCN,Non-toxic,Active
Cl.Cl.N[C@@H](Cc1ccccc1)C(=O)NCCSSCCNC(=O)CCC(=O)NCCSSCCNC(=O)CCC(=O)NCCSSCCNC(=O)[C@@H](N)Cc1ccccc1,Non-toxic,Active
Cl.Cl.NCCSSCCNC(=O)CCC(=O)NCCSSCCNC(=O)CCC(=O)NCCSSCCN,Non-toxic,Active
